Laboratory results published in ChEMBL document CHEMBL5321287, “Discovery, Synthesis, and Evaluation of Novel Dual Inhibitors of a Vascular Endothelial Growth Factor Receptor and Poly(ADP-Ribose) Polymerase for BRCA Wild-Type Breast Cancer Therapy” (J Med Chem, 2023).
pIC50: −log10 of the molar value.

Experiments:
[1] = molecular target: Poly [ADP-ribose] polymerase 1 (Homo sapiens, UniProt P09874); assay: Inhibition of PARP1 (unknown origin)
[2] = molecular target: Vascular endothelial growth factor receptor 2 (Homo sapiens, UniProt P35968); assay: Inhibition of VEGFR2 (unknown origin) by Z'-Lyte kinase assay
Sequence of Vascular endothelial growth factor receptor 2 (P35968 whole entry): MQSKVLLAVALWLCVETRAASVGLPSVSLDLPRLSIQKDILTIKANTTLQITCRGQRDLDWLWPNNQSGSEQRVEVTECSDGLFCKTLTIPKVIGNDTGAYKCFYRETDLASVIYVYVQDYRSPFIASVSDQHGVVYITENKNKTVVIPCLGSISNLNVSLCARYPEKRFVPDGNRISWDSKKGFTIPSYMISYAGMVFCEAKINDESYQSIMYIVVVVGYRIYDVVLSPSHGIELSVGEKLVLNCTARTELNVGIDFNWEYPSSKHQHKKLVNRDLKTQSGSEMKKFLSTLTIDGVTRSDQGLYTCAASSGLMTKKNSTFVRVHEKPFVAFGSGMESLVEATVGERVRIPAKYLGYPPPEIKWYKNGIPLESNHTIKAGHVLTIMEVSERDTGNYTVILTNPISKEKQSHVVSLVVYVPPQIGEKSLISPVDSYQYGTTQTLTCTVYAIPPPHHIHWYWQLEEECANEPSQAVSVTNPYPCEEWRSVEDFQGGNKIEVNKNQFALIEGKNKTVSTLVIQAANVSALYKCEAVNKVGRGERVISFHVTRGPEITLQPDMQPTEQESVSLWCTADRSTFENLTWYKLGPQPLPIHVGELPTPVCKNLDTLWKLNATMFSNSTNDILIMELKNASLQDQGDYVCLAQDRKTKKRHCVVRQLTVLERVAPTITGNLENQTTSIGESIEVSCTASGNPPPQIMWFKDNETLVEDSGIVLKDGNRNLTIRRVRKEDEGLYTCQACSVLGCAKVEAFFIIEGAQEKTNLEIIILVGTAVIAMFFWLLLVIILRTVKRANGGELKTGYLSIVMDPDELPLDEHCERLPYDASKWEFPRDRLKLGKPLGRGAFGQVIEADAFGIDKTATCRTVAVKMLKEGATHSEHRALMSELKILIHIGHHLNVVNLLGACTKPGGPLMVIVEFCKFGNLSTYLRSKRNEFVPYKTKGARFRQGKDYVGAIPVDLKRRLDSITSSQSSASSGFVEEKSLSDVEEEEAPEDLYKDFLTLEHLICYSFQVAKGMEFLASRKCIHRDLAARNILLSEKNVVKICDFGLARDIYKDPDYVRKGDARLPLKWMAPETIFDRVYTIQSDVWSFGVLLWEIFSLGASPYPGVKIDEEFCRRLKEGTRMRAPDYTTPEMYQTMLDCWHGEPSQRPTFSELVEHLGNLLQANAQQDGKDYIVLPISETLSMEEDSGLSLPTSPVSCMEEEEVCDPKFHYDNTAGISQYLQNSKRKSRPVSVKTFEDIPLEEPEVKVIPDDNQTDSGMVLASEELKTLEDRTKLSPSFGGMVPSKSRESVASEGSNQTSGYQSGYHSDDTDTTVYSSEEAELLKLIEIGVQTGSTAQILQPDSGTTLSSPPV

MCF7 = assay: Antiproliferative activity against human MCF7 cells assessed as cell growth inhibition
MDA-MB-231 = assay: Antiproliferative activity against human MDA-MB-231 cells assessed as cell growth inhibition

Sequence of Poly [ADP-ribose] polymerase 1 (P09874 whole entry): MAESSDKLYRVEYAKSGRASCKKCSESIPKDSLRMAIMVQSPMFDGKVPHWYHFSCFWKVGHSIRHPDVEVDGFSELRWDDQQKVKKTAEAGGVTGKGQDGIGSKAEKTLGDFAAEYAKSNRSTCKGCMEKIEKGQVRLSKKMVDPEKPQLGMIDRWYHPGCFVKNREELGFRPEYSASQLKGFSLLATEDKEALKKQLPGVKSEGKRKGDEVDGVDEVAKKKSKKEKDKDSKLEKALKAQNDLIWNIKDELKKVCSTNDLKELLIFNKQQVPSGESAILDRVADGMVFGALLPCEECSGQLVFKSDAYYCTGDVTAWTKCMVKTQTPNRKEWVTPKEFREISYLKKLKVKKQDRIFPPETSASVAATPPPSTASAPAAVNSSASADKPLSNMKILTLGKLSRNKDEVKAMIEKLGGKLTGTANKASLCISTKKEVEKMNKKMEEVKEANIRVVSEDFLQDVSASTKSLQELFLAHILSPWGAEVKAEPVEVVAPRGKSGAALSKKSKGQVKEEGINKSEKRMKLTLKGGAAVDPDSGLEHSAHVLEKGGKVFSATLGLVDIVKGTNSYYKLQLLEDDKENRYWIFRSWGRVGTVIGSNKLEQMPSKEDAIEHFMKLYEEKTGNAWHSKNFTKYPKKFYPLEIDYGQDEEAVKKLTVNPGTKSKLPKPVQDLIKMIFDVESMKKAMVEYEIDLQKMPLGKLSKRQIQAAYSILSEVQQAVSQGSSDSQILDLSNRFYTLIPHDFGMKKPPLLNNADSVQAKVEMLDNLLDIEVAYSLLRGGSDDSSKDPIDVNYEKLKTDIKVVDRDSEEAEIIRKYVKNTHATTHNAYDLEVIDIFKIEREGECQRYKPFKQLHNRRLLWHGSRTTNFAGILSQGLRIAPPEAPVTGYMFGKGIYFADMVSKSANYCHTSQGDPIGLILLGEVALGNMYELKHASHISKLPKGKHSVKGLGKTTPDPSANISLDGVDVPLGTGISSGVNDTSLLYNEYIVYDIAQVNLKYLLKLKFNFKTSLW

| Structure (SMILES) | pIC50 [1] | pIC50 [2] | also measured |
| --- | --- | --- | --- |
| Cc1c2ccc(N(C)c3ccnc(Nc4cccc(-c5nc6c(C(N)=O)cccc6[nH]5)c4)n3)cc2nn1C | 7.08 | – | – |
| COc1cc(Nc2nccc(N(C)c3ccc4c(C)n(C)nc4c3)n2)ccc1-c1nc2c(C(N)=O)cccc2[nH]1 | – | 6.77 | – |
| Cc1c2ccc(N(C)c3ccnc(Nc4ccc(-c5ccc(-c6nc7c(C(N)=O)cccc7[nH]6)cc5)cc4)n3)cc2nn1C | 6.33 | 6.51 | pIC50 (MCF7): < 5.00; pIC50 (MDA-MB-231): < 5.00 |
| Cc1cnc(Nc2ccc(-c3nc4c(C(N)=O)cccc4[nH]3)cc2)nc1N(C)c1ccc2c(C)n(C)nc2c1 | – | < 5.00 | – |
| Cc1c2ccc(N(C)c3ccnc(Nc4ccc(-c5nc6c(C(N)=O)cccc6[nH]5)c(Cl)c4)n3)cc2nn1C | 6.85 | – | – |
| Cc1c2ccc(N(C)c3ccnc(Nc4ccc(C(=O)Nc5nc6c(C(N)=O)cccc6[nH]5)c(C(F)(F)F)c4)n3)cc2nn1C | 6.46 | – | – |
| CN(c1ccc(Cl)cc1)c1ccnc(Nc2ccc(C(=O)Nc3nc4c(C(N)=O)cccc4[nH]3)cc2)n1 | 6.86 | – | – |
| Cc1c2ccc(N(C)c3ccnc(Nc4ccc(-c5nc6c(C(N)=O)cccc6[nH]5)c(C(F)(F)F)c4)n3)cc2nn1C | 6.79 | 6.57 | pIC50 (MCF7): < 5.00 |
| Cc1c2ccc(N(C)c3ccnc(Nc4ccc(C(=O)Nc5nc6c(C(N)=O)cccc6[nH]5)c(Cl)c4)n3)cc2nn1C | 6.78 | – | – |
| Cc1ccc(Nc2nccc(N(C)c3ccc4c(C)n(C)nc4c3)n2)cc1-c1nc2cc(F)c(F)cc2[nH]1 | 6.17 | – | – |
| Cc1c2ccc(N(C)c3nc(Nc4ccc(-c5nc6c(C(N)=O)cccc6[nH]5)cc4)nc4ccsc34)cc2nn1C | – | < 5.00 | – |
| Cc1c2ccc(N(C)c3ccnc(Nc4ccc(-c5nc6cc(F)c(F)cc6[nH]5)c(Cl)c4)n3)cc2nn1C | 6.12 | – | – |
| Cc1c2ccc(N(C)c3cc(C(F)(F)F)nc(Nc4ccc(C(=O)Nc5nc6c(C(N)=O)cccc6[nH]5)cc4)n3)cc2nn1C | – | < 5.00 | – |
| Cc1ccc(Nc2nccc(N(C)c3ccc4c(C)n(C)nc4c3)n2)cc1-c1nc2ccccc2[nH]1 | – | 6.77 | – |
| COc1ccc(-c2nc3cc(F)c(F)cc3[nH]2)cc1Nc1nccc(N(C)c2ccc3c(C)n(C)nc3c2)n1 | – | 6.70 | – |
| Cc1c2ccc(N(C)c3ccnc(Nc4ccc(C(=O)Nc5nc6c(C(N)=O)cccc6[nH]5)cc4)n3)cc2nn1C | – | 6.59 | – |
| COc1cc(Nc2nccc(N(C)c3ccc4c(C)n(C)nc4c3)n2)ccc1-c1nc2cc(F)c(F)cc2[nH]1 | – | 6.78 | – |
| Cc1c2ccc(N(C)c3ccnc(Nc4ccc(-c5nc6cc(F)c(F)cc6[nH]5)c(C(F)(F)F)c4)n3)cc2nn1C | 6.17 | – | – |
| CC(C)c1ccc(N(C)c2ccnc(Nc3ccc(-c4nc5cc(F)c(F)cc5[nH]4)cc3)n2)cc1 | – | 6.30 | – |
| Cc1c2ccc(N(C)c3ccnc(Nc4cc(F)c(-c5nc6c(C(N)=O)cccc6[nH]5)c(F)c4)n3)cc2nn1C | 6.47 | – | – |

Now from value to compound, other results behind:

| pIC50 [1] | pIC50 [2] | Structure (SMILES) | also measured |
| --- | --- | --- | --- |
| – | < 5.00 | CS(=O)(=O)N1CCN(c2ccnc(Nc3ccc(-c4nc5c(C(N)=O)cccc5[nH]4)cc3)n2)CC1 | – |
| – | < 5.00 | CN(c1ccnc(Nc2ccc(-c3nc4c(C(N)=O)cccc4[nH]3)cc2)n1)c1cc(C(C)(C)C)n(C)n1 | – |
| – | 6.18 | CN(c1ccc2ncccc2c1)c1ccnc(Nc2ccc(-c3nc4c(C(N)=O)cccc4[nH]3)cc2)n1 | – |
| – | < 5.00 | CN(c1ccc(S(C)(=O)=O)cc1)c1ccnc(Nc2ccc(-c3nc4c(C(N)=O)cccc4[nH]3)cc2)n1 | – |
| 7.02 | – | Cc1c2ccc(N(C)c3ccnc(Nc4ccc(-c5nc6c(C(N)=O)cccc6[nH]5)cc4)n3)cc2nn1C | – |
| 7.05 | – | CC(C)c1ccc(N(C)c2ccnc(Nc3ccc(-c4nc5c(C(N)=O)cccc5[nH]4)cc3)n2)cc1 | – |
| – | < 5.00 | CN1CCN(C2CCN(c3ccnc(Nc4ccc(-c5nc6c(C(N)=O)cccc6[nH]5)cc4)n3)CC2)CC1 | – |
| 6.89 | – | CN(c1ccc(F)cc1)c1ccnc(Nc2ccc(-c3nc4c(C(N)=O)cccc4[nH]3)cc2)n1 | – |
| 6.71 | – | NC(=O)c1cccc2[nH]c(NC(=O)c3ccc(Nc4nccc(N5CCN(C(=O)c6ccccc6)CC5)n4)cc3)nc12 | – |
| 7.01 | – | NC(=O)c1cccc2[nH]c(-c3ccc(Nc4nccc(N5CCN(c6ccc(C(F)(F)F)cn6)CC5)n4)cc3)nc12 | – |
